Source: patent publication US10752588B2 (The Broad Institute, Inc., priority 2014, dated 2020)

Legend:
human D2R/β-arrestin [1] = target: T1, human D2R/β-arrestin (Homo sapiens (Human), UniProt P14416); assay: β-Arrestin agonist assay (PathHunter); type: cell-based; conditions: CHO-K1 cell line expressing human D2R/β-arrestin
Protocol: (§1) The assays can be performed using proper detection reagents either prepared using routine methods known in the art or commercially available (e.g., PathHunter® β-Arrestin Detecting Kit (DiscoveRX)). Cells are grown to the necessary confluence and then detached. The cells are then centrifuged, washed, resuspended, and seeded into a container (e.g., 384-well plate). The cells are incubated (e.g., at 37° C., 5% CO2) for the appropriate period of time (e.g., 24 hours), before various compounds (e.g., a compound of the invention or a control compound) are added to the cells. After incubation of the cells with the compounds, detection reagents (e.g., a buffer containing Emerald II: Galactor-Star as provided DiscoveRX) are added to the cells. The read-out (e.g., luminescence, or fluorescence) is detected using standard equipment.
The detection reagent (9.6 μL, Buffer:Emerald II:Galactor-Star in a 19:5:1 ratio, i.e., 14.06 mL:3.7 mL:0.74 mL=18.5 mL) was then added to the agonist plates.

human D2R/β-arrestin [2] = target: T1, human D2R/β-arrestin; assay: Gi/cAMP agonist assay (Lance Ultra cAMP, Forskolin); type: cell-based; conditions: CHO-K1 cell line expressing human D2R/β-arrestin
Protocol: as §1, with “PE Lance Ultra cAMP kit (TRF0263)).” for “PathHunter® β-Arrestin Detecting Kit (DiscoveRX)).”, “Afterwards, cAMP inducing agents (e.g., Forskolin) are added to and incubated with” for “After incubation of”, “before” for “with the compounds,”, “cAMP antibody, such” for “buffer containing Emerald II: Galactor-Star”, “ULight-anti-cAMP solution)” for “provided DiscoveRX)”, “Read-out” for “The read-out”
Compounds were pin-transferred (100 nL) to the cells, and incubated for 10 min. at 37° C. […] Eu-cAMP tracer solution (100, PerkinElmer, […] in 17.64 ml kit buffer) and ULight-anti-cAMP solution (100, 120 μL antibody in 17.88 ml kit buffer) was then added to each well.

human D2R/β-arrestin [3] = target: T1, human D2R/β-arrestin; assay: cell-based; conditions: β-arrestin Antagonist, CHO-K1 cell line expressing human D2R/β-arrestin; quinpirole used as agonist
human D2R/β-arrestin [4] = target: T1, human D2R/β-arrestin; assay: cell-based; conditions: cAMP Antagonist, CHO-K1 cell line expressing human D2R/β-arrestin; quinpirole used as agonist

T1 sequence (P14416 whole entry): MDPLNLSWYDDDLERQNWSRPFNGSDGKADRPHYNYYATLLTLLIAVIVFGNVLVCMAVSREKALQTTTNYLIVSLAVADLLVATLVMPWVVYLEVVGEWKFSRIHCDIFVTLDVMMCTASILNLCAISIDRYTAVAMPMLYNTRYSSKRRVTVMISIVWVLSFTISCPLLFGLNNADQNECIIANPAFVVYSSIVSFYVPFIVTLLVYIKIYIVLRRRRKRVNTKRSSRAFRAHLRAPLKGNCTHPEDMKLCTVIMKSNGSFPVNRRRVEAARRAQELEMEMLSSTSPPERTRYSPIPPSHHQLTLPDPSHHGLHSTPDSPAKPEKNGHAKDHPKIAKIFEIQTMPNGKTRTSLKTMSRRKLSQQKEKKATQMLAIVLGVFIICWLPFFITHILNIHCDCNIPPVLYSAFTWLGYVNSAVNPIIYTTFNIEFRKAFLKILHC

Structure (SMILES) | EC50 (human D2R/β-arrestin [1]) [nM] | EC50 (human D2R/β-arrestin [2]) [nM] | IC50 (human D2R/β-arrestin [3]) [nM] | IC50 (human D2R/β-arrestin [4]) [nM]
COc1ccccc1C(NC(=O)C1CCN(CCOc2ccccc2)CC1)c1ccc(Cl)cc1 (stereo not shown) [Compound 43] | > 30000 | 1000 to 10000 | 1000 to 10000 | > 30000
Fc1ccc(C(NCC2CCN(CCOc3ccccc3)CC2)c2ccccn2)cc1 (stereo not shown) [Compound 78, 1-(4-fluorophenyl)-N-((1-(2-phenoxyethyl)piperidin-4-yl)methyl)-1-(pyridin-2-yl)methanamine] | > 30000 | 100 to 1000 | 1000 to 10000 | 1000 to 10000
O=C(NC(c1cccc(OC(F)(F)F)c1)c1ccccn1)C1CCN(CCOc2ccccc2F)CC1 (single isomer, unassigned) [Compound 93a, 1-(2-(2-fluorophenoxy)ethyl)-N-(pyridin-2-yl(3-(trifluoromethoxy)phenyl)methyl)piperidine-4-carboxamide] | > 30000 | 10000 to 30000 | 1000 to 10000 | 100 to 1000
O=C(NC(c1ccc2c(c1)OC(F)(F)O2)c1ccccn1)C1CCN(CCOc2ccccc2)CC1 (stereo not shown) [Compound 119] | > 30000 | < 100 | 100 to 1000 | > 30000
O=C(NC(c1ccccn1)c1ccccc1Cl)C1CCN(CCOc2ccccc2)CC1 (stereo not shown) [Compound 24] | > 30000 | 1000 to 10000 | 1000 to 10000 | > 30000
Clc1ccc(C(c2ccccn2)N2CC3CCN(CCOc4ccccc4)CC3C2)cc1 (stereo not shown) [Compound 98, 2-((4-chlorophenyl)(pyridin-2-yl)methyl)-5-(2-phenoxyethyl)octahydro-1H-pyrrolo[3,4-c]pyridine] | 100 to 1000 | < 100 | > 30000 | > 30000
O=C(NC(c1ccc(F)cc1)c1ccc(F)cc1)C1CCN(CCOc2ccccc2Cl)CC1 [Compound 83, N-(bis(4-fluorophenyl)methyl)-1-(2-(2-chlorophenoxy)ethyl)piperidine-4-carboxamide] | > 30000 | > 30000 | < 100 | < 100
O=C(NC(c1ccc(Cl)cc1)c1ccc(F)cn1)C1CCN(CCOc2ccccc2F)CC1 (single isomer, unassigned) [Compound 92a, N-((4-chlorophenyl)(5-fluoropyridin-2-yl)methyl)-1-(2-(2-fluorophenoxy)ethyl)piperidine-4-carboxamide] | > 30000 | 100 to 1000 | 100 to 1000 | 100 to 1000
CN(CC1CCN(CCOc2ccccc2F)CC1)C(c1ccc2c(c1)OCO2)c1ccccn1 (stereo not shown) [Compound 138, 1-(benzo[d][1,3]dioxol-5-yl)-N-((1-(2-(2-fluorophenoxy)ethyl)piperidin-4-yl)methyl)-N-methyl-1-(pyridin-2-yl)methanamine] | > 30000 | 100 to 1000 | 100 to 1000 | > 30000
Oc1c(CN2CCN(c3ccccn3)CC2)cc(Cl)c2cccnc12 [MLS1547, reference compound] | > 30000 | < 100 | 1000 to 10000 | > 30000
Fc1ccc(F)c(OCCN2CCC(CNC(c3ccc(Cl)cc3)c3ccccn3)CC2)c1 (single isomer, unassigned) [Compound 89a, 1-(4-chlorophenyl)-N-((1-(2-(2,5-difluorophenoxy)ethyl)piperidin-4-yl)methyl)-1-(pyridin-2-yl)methanamine] | > 30000 | > 30000 | 100 to 1000 | 100 to 1000
Fc1ccccc1OCCN1CCC(CNC(c2ccc3c(c2)OCO3)c2ccccn2)CC1 (single isomer, unassigned) [Compound 139a, 1-(benzo[d][1,3]dioxol-5-yl)-N-((1-(2-(2-fluorophenoxy)ethyl)piperidin-4-yl)methyl)-1-(pyridin-2-yl)methanamine] | > 30000 | < 100 | 100 to 1000 | 100 to 1000
CC(C1CCN(CCOc2ccccc2)CC1)N(C)C(c1ccc(Cl)cc1)c1ccccn1 (single isomer, unassigned) [Compound 97d, N-((4-chlorophenyl)(pyridin-2-yl)methyl)-N-methyl-1-(1-(2-phenoxyethyl)piperidin-4-yl)ethan-1-amine] | > 30000 | > 30000 | 100 to 1000 | 100 to 1000
O=C(NC(c1ccc(Cl)cc1)c1ccccn1)C1CCN(CCOc2cccc(Cl)c2)CC1 (single isomer, unassigned) [Compound 1a, 1-(2-(3-chlorophenoxy)ethyl)-N-((4-chlorophenyl)(pyridin-2-yl)methyl)piperidine-4-carboxamide] | > 30000 | > 30000 | 1000 to 10000 | 100 to 1000
O=C(NC(c1ccc(Cl)cc1)c1ccccn1)C1CCN(CC2COc3ccccc3O2)CC1 (stereo not shown) [Compound 140, N-((4-chlorophenyl)(pyridin-2-yl)methyl)-1-((2,3-dihydrobenzo[b][1,4]dioxin-2-yl)methyl)piperidine-4-carboxamide] | > 30000 | 1000 to 10000 | 1000 to 10000 | 1000 to 10000
COc1cccc(C(NC(=O)C2CCN(CCOc3ccccc3C(F)(F)F)CC2)c2ccccn2)c1 (stereo not shown) [Compound 20, N-((3-methoxyphenyl)(pyridin-2-yl)methyl)-1-(2-(2-(trifluoromethyl)phenoxy)ethyl) piperidine-4-carboxamide] | > 30000 | > 30000 | 100 to 1000 | < 100
CC(C)N(CC1CCN(CCOc2ccccc2F)CC1)C(c1ccc(Cl)cc1)c1ccccn1 (single isomer, unassigned) [Compound 133a, N-((4-chlorophenyl)(pyridin-2-yl)methyl)-N-((1-(2-(2-fluorophenoxy)ethyl)piperidin-4-yl)methyl)propan-2-amine] | > 30000 | > 30000 | < 100 | < 100
CC1(C(=O)NC(c2ccc(F)cc2)c2ccccn2)CCN(CCOc2ccccc2)CC1 (single isomer, unassigned) [Compound 69a, N-((4-fluorophenyl)(pyridin-2-yl)methyl)-4-methyl-1-(2-phenoxyethyl)piperidine-4-carboxamide] | 100 to 1000 | 100 to 1000 | 1000 to 10000 | > 30000
COc1ccc(OCCN2CCC(C(=O)NC(c3ccc(Cl)cc3)c3ccccn3)CC2)cc1 (stereo not shown) [Compound 13, N-((4-chlorophenyl)(pyridin-2-yl)methyl)-1-(2-(4-methoxyphenoxy)ethyl) piperidine-4-carboxamide] | > 30000 | 1000 to 10000 | 1000 to 10000 | > 30000
CN1CCC(C(=O)NC(c2ccc(Cl)cc2)c2ccccn2)CC1 (stereo not shown) [Compound 64, N-((4-chlorophenyl)(pyridin-2-yl)methyl)-1-methylpiperidine-4-carboxamide] | > 30000 | > 30000 | 10000 to 30000 | 1000 to 10000
O=C(NC(c1ccc(F)cc1)c1ccccn1)C1CCN(Cc2cc3ccccc3o2)CC1 (stereo not shown) [Compound 59] | > 30000 | > 30000 | > 30000 | 10000 to 30000
Fc1ccc(OCCN2CCC(CNC(c3ccc(Cl)cc3)c3ccccn3)CC2)cc1 (stereo not shown) [Compound 132, 1-(4-chlorophenyl)-N-((1-(2-(4-fluorophenoxy)ethyl)piperidin-4-yl)methyl)-1-(pyridin-2-yl)methanamine] | > 30000 | > 30000 | 1000 to 10000 | 1000 to 10000
O=C(NC(c1ccccc1F)c1ccccc1F)C1CCN(CCOc2ccccc2Cl)CC1 [Compound 84, N-(bis(2-fluorophenyl)methyl)-1-(2-(2-chlorophenoxy)ethyl)piperidine-4-carboxamide] | > 30000 | > 30000 | 100 to 1000 | 100 to 1000
O=C(NC(c1ccccc1)c1ccccn1)C1CCN(CCOc2ccccc2)CC1 (stereo not shown) [Compound 113, 1-(2-phenoxyethyl)-N-(phenyl(pyridin-2-yl)methyl)piperidine-4-carboxamide] | > 30000 | < 100 | 1000 to 10000 | > 30000
COc1cccc(C(NC(=O)C2(C)CCN(CCOc3ccccc3)CC2)c2ccccn2)c1 (stereo not shown) [Compound 143, N-((3-methoxyphenyl)(pyridin-2-yl)methyl)-4-methyl-1-(2-phenoxyethyl)piperidine-4-carboxamide] | 1000 to 10000 | 100 to 1000 | 1000 to 10000 | > 30000
